What was measured:
Assay in all cases: relative viability (nuclei count vs DMSO), 5 days (fraction); higher = more cells survive
IU1-47 + Bortezomib = compound: CC1=CC(=C(N1C2=CC=C(C=C2)Cl)C)C(=O)CN3CCCCC3 [IU1-47] + CC(C)C[C@H](NC(=O)[C@H](Cc1ccccc1)NC(=O)c1cnccn1)B(O)O [Bortezomib] (partner 0.002 µM)
In short: (§1)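 Relative viability was taken as the ratio of nuclei in treated wells to nuclei in vehicle wells. Lung cancer cell lines in 1536-well plates received compounds by pin tool one day after seeding, either one drug alone or a fixed anchor-drug dose plus five library-drug doses (not always all listed) in √10 steps. Nuclei were counted on 4× images after 5 days of treatment, and values are medians of duplicate plates.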

IU1-47 + Luminespib = compound: CC1=CC(=C(N1C2=CC=C(C=C2)Cl)C)C(=O)CN3CCCCC3 [IU1-47] + CCNC(=O)c1noc(-c2cc(C(C)C)c(O)cc2O)c1-c1ccc(CN2CCOCC2)cc1 [Luminespib] (partner 0.01 µM)
In short: as §1

IU1-47 + Crizotinib = compound: CC1=CC(=C(N1C2=CC=C(C=C2)Cl)C)C(=O)CN3CCCCC3 [IU1-47] + C[C@@H](Oc1cc(-c2cnn(C3CCNCC3)c2)cnc1N)c1c(Cl)ccc(F)c1Cl [Crizotinib] (partner 1 µM)
In short: as §1

IU1-47 + Vorinostat = compound: CC1=CC(=C(N1C2=CC=C(C=C2)Cl)C)C(=O)CN3CCCCC3 [IU1-47] + O=C(CCCCCCC(=O)Nc1ccccc1)NO [Vorinostat] (partner 1 µM)
In short: as §1

UMC-11
relative viability (IU1-47 + Bortezomib; first compound 0.08 µM): 0.653
relative viability (IU1-47 + Bortezomib; first compound 0.253 µM): 0.618
relative viability (IU1-47 + Bortezomib; first compound 0.8 µM): 0.673
relative viability (IU1-47 + Bortezomib; first compound 2.53 µM): 1.04
relative viability (IU1-47 + Bortezomib; first compound 8 µM): 0.575
relative viability (IU1-47 + Luminespib; first compound 0.08 µM): 1.08
relative viability (IU1-47 + Luminespib; first compound 0.253 µM): 0.974
relative viability (IU1-47 + Luminespib; first compound 0.8 µM): 1.09
relative viability (IU1-47 + Luminespib; first compound 2.53 µM): 1.06
relative viability (IU1-47 + Luminespib; first compound 8 µM): 0.938
relative viability (IU1-47 + Crizotinib; first compound 0.08 µM): 0.564
relative viability (IU1-47 + Crizotinib; first compound 0.253 µM): 0.641
relative viability (IU1-47 + Crizotinib; first compound 0.8 µM): 0.476
relative viability (IU1-47 + Crizotinib; first compound 2.53 µM): 0.673
relative viability (IU1-47 + Crizotinib; first compound 8 µM): 0.574
relative viability (IU1-47 + Vorinostat; first compound 0.08 µM): 0.409
relative viability (IU1-47 + Vorinostat; first compound 0.253 µM): 0.408
relative viability (IU1-47 + Vorinostat; first compound 0.8 µM): 0.374
relative viability (IU1-47 + Vorinostat; first compound 2.53 µM): 0.413
relative viability (IU1-47 + Vorinostat; first compound 8 µM): 0.377

— the supplement of paper PMC10307832
